Test results from US11607422B2, “Uttroside B and derivatives thereof as therapeutics for hepatocellular carcinoma” (Rajiv Gandhi Centre for Biotechnology, an Autonomous …, priority 2016, dated 2023).

Legend:
A549 = test: MTT cell viability assay in A549 cells; format: cell-based; details: 72 h
Method: FIG. 2A is a graph comparison of IC50 of Uttroside B in a panel of cancer cells of different origin. The cancer cell lines HeLa, A375, HepG2, MDA-MB-231, HL 60, A549 and HCT116 were treated with Uttroside B as indicated, incubated for 72 h and the cell viability was assessed by MTT assay. FIG. 2B is a graph showing dose dependent effect of Uttroside B in the liver cancer cell lines and in normal immortalized hepatocytes. The liver cancer cell lines HepG2, Hep3B, SKHEP-1, Huh-7 and normal hepatocytes (Chang liver), were treated with Uttroside B incubated for 72 h and the cell viability was assessed by MTT assay. FIG. 2C is a graph comparison of IC50 of Uttroside B with sorafenib. HepG2 cells were treated with Uttroside B as indicated, incubated for 72 h, and the cell viability was assessed by MTT assay. […] The clones developed were counted and plotted as a graph. Colony containing more than four cells was counted as one clone. […]
MTT [3-(4,5-dimethylthiazole-2-yl)-2,5-diphenyltetrazolium bromide] assay is a standard colorimetric assay, suitable for analyzing proliferation, viability, and cytotoxicity. […] After overnight incubation, cells were treated with different concentrations of organic extracts (25-250 μg/ml) of S. nigrum and the isolated compound Uttroside B (250-1250 nM) for 72 h and cytotoxicity was measured. […]

[1] = test system: autophagy related proteins in HepG2 cells; test: Western blot of autophagy related proteins in HepG2 cells; format: cell-based, human; details: time dependent
Method: Western blot analysis. Approximately 0.5×10^6 cells were grown on 60 mm culture plates and exposed to drugs as indicated for the desired time. The cells were then scraped out, washed in ice cold 1× PBS and pelleted down at 13000 rpm for 2 min. The pelleted cells were suspended in 150 μL of ice-cold whole cell lysis buffer[(20 mMTris of pH 7.4, 250 mM NaCl, 2 mM EDTA, 0.1% Triton, 1 mM DTT (1,4-dithiothreitol), 0.5 mM PMSF, 4 mM sodium orthovanadate, aprotinin (5 mg m/L) and leupeptin (5 mg m/L)] and kept in ice for 30 min, with intermittent vortexing every 5 min. After incubation, the lysate was centrifuged at 13000 rpm for 10 min at 4° C. and the supernatant was collected. The total protein content in the lysate was estimated by Bradford's method, and was then denatured by boiling with 5× loading dye before separating the proteins by SDSpolyacrylamidegel electrophoresis (SDS-PAGE). […]

C[C@H](CC[C@@]1(O)O[C@H]2C[C@H]3[C@@H]4CC[C@H]5C[C@@H](O[C@@H]6O[C@H](CO)[C@H](O[C@@H]7O[C@H](CO)[C@@H](O)[C@H](O[C@@H]8OC[C@@H](O)[C@H](O)[C@H]8O)[C@H]7O[C@@H]7O[C@H](CO)[C@@H](O)[C@H](O)[C@H]7O)[C@H](O)[C@H]6O)CC[C@]5(C)[C@H]4CC[C@]3(C)[C@H]2[C@@H]1C)CO[C@@H]1O[C@H](CO)[C@@H](O)[C@H](O)[C@H]1O [Uttroside B]
IC50 (A549): 1 µM | expression of autophagy related proteins, HepG2 [1]: induces up-regulation of all autophagy related proteins in a time dependent manner
